Measurements as given in PubChem BioAssay (NCI).
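48-hour exposure; five concentrations; linearly interpolated endpoints. GI50 marks 50% less growth. TGI denotes the concentration required for complete inhibition of growth.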

Columns and labels:
Assay in all cases: growth of human tumour cells (NCI), 48 h
[1] = system: A549 NSCLC
[2] = system: T-47D breast
[3] = system: HS 578T breast
[4] = system: KM12 colon
[5] = system: SK-MEL-28 melanoma
[6] = system: SR leukemia
[7] = system: SK-OV-3 ovarian
[8] = system: HCC-2998 colon
[9] = system: UACC-62 melanoma
[10] = system: SNB-75 CNS
[11] = system: RPMI-8226 leukemia
[12] = system: NCI-H522 lung
[13] = system: SF-295 CNS
[14] = system: SF-539 CNS
[15] = system: 786-0 renal
[16] = system: SF-268 CNS
[17] = system: OVCAR-4 ovarian
[18] = system: SK-MEL-2 melanoma
[19] = system: SNB-19 CNS
[20] = system: HT29 colon
[21] = system: NCI-H460 lung
[22] = system: LOX IMVI melanoma
[23] = system: RXF 393 renal
[24] = system: CAKI-1 renal
[25] = system: SK-MEL-5 melanoma
[26] = system: HCT-116 colon
[27] = system: HOP-92 NSCLC
[28] = system: MDA-MB-231 breast
[29] = system: COLO 205 colon
[30] = system: SN12C renal
[31] = system: ACHN renal
[32] = system: NCI-H226 lung
[33] = system: TK-10 renal
[34] = system: PC-3 prostate
[35] = system: M14 melanoma
[36] = system: U251 CNS
[37] = system: IGROV1 ovarian
[38] = system: OVCAR-8 ovarian
[39] = system: A498 renal
[40] = system: SW-620 colon
[41] = system: MALME-3M melanoma
[42] = system: MDA-MB-435
[43] = system: BT-549 breast
[44] = system: HCT-15 colon
[45] = system: MCF7 breast
[46] = system: OVCAR-5 ovarian
[47] = system: UO-31 renal
[48] = system: UACC-257 melanoma
[49] = system: HOP-62 NSCLC
[50] = system: EKVX NSCLC
[51] = system: CCRF-CEM leukemia
[52] = system: DU-145 prostate
[53] = system: HL-60(TB) leukemia
[54] = system: K-562 leukemia

**Q.** With `COc1ccc2c(c1)Oc1nc(N)c(C#N)c(N)c1C2Sc1ccc(C)cc1` (stereo not drawn) as the compound, how does the GI50 [1] read?
**A.** 1770 nM

**Q.** And the TGI [1]?
**A.** 3330 nM

**Q.** And the GI50 [2]?
**A.** 1220 nM

**Q.** And the TGI [2]?
**A.** 3910 nM

**Q.** What about the GI50 [3] of the same compound?
**A.** 2410 nM

**Q.** And the TGI [3]?
**A.** 5830 nM

**Q.** What about the GI50 [4] of the same compound?
**A.** 1740 nM

**Q.** And the TGI [4]?
**A.** 3150 nM

**Q.** And the GI50 [5]?
**A.** 1730 nM

**Q.** And the TGI [5]?
**A.** 3120 nM

**Q.** What about the GI50 [6] of the same compound?
**A.** 313 nM

**Q.** And the TGI [6]?
**A.** > 100000 nM

**Q.** What about the GI50 [7] of the same compound?
**A.** 1900 nM

**Q.** What about the TGI [7] of the same compound?
**A.** 3390 nM

**Q.** And the GI50 [8]?
**A.** 1750 nM

**Q.** And the TGI [8]?
**A.** 3260 nM

**Q.** What about the GI50 [9] of the same compound?
**A.** 1660 nM

**Q.** What about the TGI [9] of the same compound?
**A.** 3080 nM

**Q.** And the GI50 [10]?
**A.** 1400 nM

**Q.** And the TGI [10]?
**A.** 2700 nM

**Q.** And the GI50 [11]?
**A.** 2610 nM

**Q.** What about the TGI [11] of the same compound?
**A.** 7270 nM

**Q.** And the GI50 [12]?
**A.** 1530 nM

**Q.** What about the TGI [12] of the same compound?
**A.** 2870 nM

**Q.** And the GI50 [13]?
**A.** 1690 nM

**Q.** And the TGI [13]?
**A.** 3080 nM

**Q.** And the GI50 [14]?
**A.** 1610 nM

**Q.** What about the TGI [14] of the same compound?
**A.** 2980 nM

**Q.** What about the GI50 [15] of the same compound?
**A.** 1700 nM

**Q.** And the TGI [15]?
**A.** 3130 nM

**Q.** And the GI50 [16]?
**A.** 1590 nM

**Q.** And the TGI [16]?
**A.** 3040 nM

**Q.** What about the GI50 [17] of the same compound?
**A.** 1730 nM

**Q.** And the TGI [17]?
**A.** 3130 nM

**Q.** What about the GI50 [18] of the same compound?
**A.** 1590 nM

**Q.** What about the TGI [18] of the same compound?
**A.** 2940 nM

**Q.** What about the GI50 [19] of the same compound?
**A.** 1720 nM

**Q.** What about the TGI [19] of the same compound?
**A.** 3120 nM

**Q.** What about the GI50 [20] of the same compound?
**A.** 1800 nM

**Q.** And the TGI [20]?
**A.** 3300 nM

**Q.** And the GI50 [21]?
**A.** 1980 nM

**Q.** What about the TGI [21] of the same compound?
**A.** 3900 nM

**Q.** And the GI50 [22]?
**A.** 1410 nM

**Q.** And the TGI [22]?
**A.** 2840 nM

**Q.** What about the GI50 [23] of the same compound?
**A.** 1480 nM

**Q.** What about the TGI [23] of the same compound?
**A.** 2810 nM

**Q.** What about the GI50 [24] of the same compound?
**A.** 1340 nM

**Q.** And the TGI [24]?
**A.** 2630 nM

**Q.** And the GI50 [25]?
**A.** 1790 nM

**Q.** And the TGI [25]?
**A.** 3190 nM

**Q.** And the GI50 [26]?
**A.** 1750 nM

**Q.** And the TGI [26]?
**A.** 3310 nM

**Q.** And the GI50 [27]?
**A.** 1640 nM

**Q.** What about the TGI [27] of the same compound?
**A.** 3010 nM

**Q.** What about the GI50 [28] of the same compound?
**A.** 1710 nM

**Q.** And the TGI [28]?
**A.** 3130 nM

**Q.** And the GI50 [29]?
**A.** 1900 nM

**Q.** What about the TGI [29] of the same compound?
**A.** 3600 nM

**Q.** What about the GI50 [30] of the same compound?
**A.** 1590 nM

**Q.** And the TGI [30]?
**A.** 2940 nM

**Q.** And the GI50 [31]?
**A.** 1660 nM

**Q.** What about the TGI [31] of the same compound?
**A.** 3020 nM

**Q.** And the GI50 [32]?
**A.** 1970 nM

**Q.** What about the TGI [32] of the same compound?
**A.** 4590 nM

**Q.** What about the GI50 [33] of the same compound?
**A.** 1830 nM

**Q.** What about the TGI [33] of the same compound?
**A.** 3220 nM

**Q.** And the GI50 [34]?
**A.** 1620 nM

**Q.** And the TGI [34]?
**A.** 3040 nM

**Q.** And the GI50 [35]?
**A.** 1850 nM

**Q.** What about the TGI [35] of the same compound?
**A.** 3360 nM

**Q.** And the GI50 [36]?
**A.** 1550 nM

**Q.** What about the TGI [36] of the same compound?
**A.** 2960 nM

**Q.** What about the GI50 [37] of the same compound?
**A.** 1200 nM

**Q.** And the TGI [37]?
**A.** 2490 nM

**Q.** And the GI50 [38]?
**A.** 1730 nM

**Q.** And the TGI [38]?
**A.** 3140 nM

**Q.** What about the GI50 [39] of the same compound?
**A.** 1480 nM

**Q.** What about the TGI [39] of the same compound?
**A.** 2800 nM

**Q.** What about the GI50 [40] of the same compound?
**A.** 1770 nM

**Q.** And the TGI [40]?
**A.** 3380 nM

**Q.** And the GI50 [41]?
**A.** 1670 nM

**Q.** What about the TGI [41] of the same compound?
**A.** 3120 nM

**Q.** And the GI50 [42]?
**A.** 1670 nM

**Q.** What about the TGI [42] of the same compound?
**A.** 3090 nM

**Q.** And the GI50 [43]?
**A.** 1290 nM

**Q.** And the TGI [43]?
**A.** 2580 nM

**Q.** And the GI50 [44]?
**A.** 1330 nM

**Q.** What about the TGI [44] of the same compound?
**A.** 2830 nM

**Q.** And the GI50 [45]?
**A.** 1260 nM

**Q.** And the TGI [45]?
**A.** 2900 nM

**Q.** What about the GI50 [46] of the same compound?
**A.** 1780 nM

**Q.** And the TGI [46]?
**A.** 3240 nM

**Q.** What about the GI50 [47] of the same compound?
**A.** 1180 nM

**Q.** What about the TGI [47] of the same compound?
**A.** 2420 nM

**Q.** And the GI50 [48]?
**A.** 1710 nM

**Q.** What about the TGI [48] of the same compound?
**A.** 3110 nM

**Q.** And the GI50 [49]?
**A.** 1820 nM

**Q.** What about the TGI [49] of the same compound?
**A.** 3310 nM

**Q.** And the GI50 [50]?
**A.** 1720 nM

**Q.** What about the TGI [50] of the same compound?
**A.** 3280 nM

**Q.** And the GI50 [51]?
**A.** 421 nM

**Q.** And the TGI [51]?
**A.** > 100000 nM

**Q.** And the GI50 [52]?
**A.** 1870 nM

**Q.** And the TGI [52]?
**A.** 3340 nM

**Q.** What about the GI50 [53] of the same compound?
**A.** 1720 nM

**Q.** And the TGI [53]?
**A.** 5260 nM

**Q.** And the GI50 [54]?
**A.** 584 nM

**Q.** What about the TGI [54] of the same compound?
**A.** > 100000 nM
